Results from patent US11541029B2, “High penetration compositions and their applications” (Techfields Pharma Co., Ltd., priority 2008, dated 2023).

Assays:
[1] = tested on: Human colon cancer cells (LS174J); experiment: Human colon cancer xenograft in nude mice
From the text: Human colon cancer cells (LS174J, 2-3 mm^3 of tumor tissue was used in each mouse) were subcutaneously xenografted into nude mice (BALB).

[2] = tested on: Human breast cancer cells (BCAP-37); experiment: Human breast cancer xenograft in nude mice
Method: Human breast cancer cells (BCAP-37, 2-3 mm^3 of tumor tissue was used in each mouse) were subcutaneously xenografted into nude mice (BALB, 12 groups, 7 mice each group). […] 50 μl of 5% (equal to 2.5 mg of the HPCs) diethylaminoethyl acetylsalicylate.HCl (P-1, in pure water); 1-piperidinepropyl 2[(2,6-dichlorophenyl)amino]benzene acetate.HCl (P-2, in water), 1-pyrrolidinepropyl 2-(3-benzoylphenyl) propionate.HCl (P-3, in water), 4-piperidinemethyl 2-(3-phenoxyphenyl)propionate.HCl (P-4, in water), 3-piperidinemethyl 2-(ρ-isobutylphenyl) propionate.HCl (P-5, in water), diethylaminoethyl 1-(p-chlorobenzoyl)-5-methoxy-2-methylindole 3-acetate.HCl (P-11, in water), 2-(4-morpholinyl)ethyl (Z)-5-fluoro-2-methyl-1-[(4-methylsulfinyl)phenylmethylene]-1H-indene-3-acetate.

[3] = Distribution in organs of rats killed with CO2 (absence of general circulation); conditions: 5 hrs after 0.3 mmol/kg diethylaminoethyl acetylsalicylate HCl salt on back of killed rats;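 further: tissue concentration in nmol/g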
Method: 0.3 mmol/kg of diethylaminoethyl acetylsalicylate HCl salt (10% in pure water) was applied to the back of rats (10 cm^2) which were killed with CO2. The rats were shaken for 5 hrs, then the HPCs and parent drugs in organs of rats were determined.

[4] = tested on: type 2 diabetes rat models [SLAC/GK(Goto and Kakisaki)]; experiment: Hypoglycemic effects of aspirin and its HPC in GK rats, once per day for 6 weeks; assay type: in vivo; conditions: for Blood Glucose Levels at day 1 / Blood Glucose Levels at day 42: no fasting, n = 5;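 on Blood Glucose Levels at day 42: blood glucose in mg/dL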
Method: The blood glucose levels were measured three times every week (no fasting) from the third week to the sixth week.

[5] = tested on: rats given sterilized E. coli suspension as a pyrogen; experiment: Antipyretic activity of aspirin and its HPC (Study B); assay type: in vivo
Method: […] Group A was the control group. The body temperature of rats was taken at 90 min. intervals before and after the administration of the test compounds.

[6] = tested on: Human Gastric Cancer HGC-27 cell; experiment: HGC-27 cell proliferation, MTT assay; assay type: cell-based; conditions: 72 hours
Method: The inhibition of cellular proliferation was measured by the modified dimethyl thiazolyl diphenyl tetrazolium salt (MTT) [3-(4,5-dimethylthiazol-2-yl)-2,5-diphenyltetrazolium bromide] assay, based on the ability of live cells to converting thiazolyl blue to dark blue formazan. Approximately 3500 cells of HGC-27 (in 100 μl culture solution) were seeded into 96-well culture plates and were cultured for 16 hours at 37° C. Different concentration solution (100 μl) of Taxol (positive control), chlorambucil, or N,N-diethylaminoethyl 4-[bis(2-chloroethyl)amino]benzenebutyrate.HCl salt (HPC of chlorambucil) were added and incubation continued for 72 hours at 37° C. Then MTT were added and incubation continued at 37° C. for 4 h, and 100 μl DMSO was pipetted to solubilize the formazan product for 30 min at room temperature. The absorbency at 570 nm was measured using Bio-Rad micro-plate reader […].

[7] = about 50 μl of 5% topically every 12 hours
[8] = 50 μl of 5% topically every 8 hours

With CC(C(=O)OCC1CCNCC1)c1cccc(Oc2ccccc2)c1.Cl (centres unmarked) [P-4, 4-piperidinemethyl 2-(3-phenoxyphenyl)propionate.HCl] the “tumor Size at day 30” value [1, 7] was 550 ± 128 mm^3, the “Weight of mice at day 30” value ([1]; in vivo) was 22 ± 3 and the “tumor Size at day 42” value [2, 8] was 190 ± 55 mm^3. The “Weight of mice at day 42” value ([2]; in vivo) was 23 ± 3.
In the case of CCN(CC)CCOC(=O)c1ccccc1Nc1cccc(C)c1C.Cl [P-46, diethylaminoethyl 2-[(2,3-dimethylphenyl)amino]benzoate.HCl], the “tumor Size at day 30” value [1, 7] is reported as 650 ± 250 mm^3 and the “Weight of mice at day 30” value ([1]; in vivo) is reported as 23 ± 3.
In the case of Cl.Nc1c(CC(=O)OCCN2CCOCC2)cccc1C(=O)c1ccccc1 [P-16, 2-(4-morpholinyl)ethyl 2-amino-3-benzoylbenzeneacetate.HCl], the “tumor Size at day 30” value [1, 7] is reported as 590 ± 350 mm^3 and the “Weight of mice at day 30” value ([1]; in vivo) is reported as 23 ± 2.
In the case of CC(C(=O)OCCCN1CCCC1)c1cccc(C(=O)c2ccccc2)c1.Cl (centres unmarked) [P-3, 1-pyrrolidinepropyl 2-(3-benzoylphenyl) propionate.HCl], the “tumor Size at day 30” value [1, 7] is reported as 550 ± 190 mm^3, the “Weight of mice at day 30” value ([1]; in vivo) is reported as 23 ± 2 and the “tumor Size at day 42” value [2, 8] is reported as 210 ± 60 mm^3. For the same compound, the “Weight of mice at day 42” value ([2]; in vivo) was 22 ± 3.
In the case of Cl.O=C(Cc1ccccc1Nc1c(Cl)cccc1Cl)OCCCN1CCCCC1 [P-2, 1-piperidinepropyl 2[(2,6-dichlorophenyl)amino]benzene acetate.HCl], the “Weight of mice at day 30” value [1, 7] is reported as 22 ± 2, the “tumor Size at day 30” value [1, 7] is reported as 520 ± 170 mm^3 and the “tumor Size at day 42” value [2, 8] is reported as 160 ± 50 mm^3. The “Weight of mice at day 42” value ([2]; 50 μl of 5% topically every 8 hours, in g (unit assumed)) was 23 ± 2.
In the case of CCN(CC)CCOC(=O)c1ccccc1Nc1c(Cl)ccc(C)c1Cl.Cl [P-47, diethylaminoethyl 2-[(2,6-dichloro-3-methylphenyl)amino]benzoate.HCl], the “tumor Size at day 30” value [1, 7] is reported as 590 ± 350 mm^3 and the “Weight of mice at day 30” value ([1]; in vivo) is reported as 22 ± 2.
In the case of CC(=O)Oc1ccccc1C(=O)O [aspirin, acetylsalicylic acid, reference compound], the “concentration in Leg muscle” value [3] is reported as 6.7 ± 2.1 nmol/g, the concentration in kidney [3] is reported as 3.5 ± 2.1 nmol/g and the concentration in liver [3] is reported as 2.1 ± 1.0 nmol/g. The concentration in pancreas [3] was 4.1 ± 1.3 nmol/g, the concentration in stomach [3] was 4.7 ± 2.5 nmol/g and the “Blood Glucose Levels at day 1” value ([4]; 50 mg/kg, orally) was 213.7 ± 20.5 mg/dL. For the same compound, the “Blood Glucose Levels at day 42” value ([4]; 50 mg/kg, orally) was 243.4 ± 26.7 mg/dL, the “Blood Glucose Levels at day 1” value ([4]; 50 mg/kg, transdermally) was 216.6 ± 17.3 mg/dL and the “Blood Glucose Levels at day 42” value ([4]; 50 mg/kg, transdermally) was 258.2 ± 17.4 mg/dL. For the same compound, the “Blood Glucose Levels at day 1” value ([4]; 100 mg/kg, orally) was 211.3 ± 21.5 mg/dL, the “Blood Glucose Levels at day 42” value ([4]; 100 mg/kg, orally) was 219.4 ± 19.9 mg/dL and the “Blood Glucose Levels at day 1” value ([4]; 100 mg/kg, transdermally) was 217.4 ± 18.9 mg/dL. The “Blood Glucose Levels at day 42” value ([4]; 100 mg/kg, transdermally) was 255.4 ± 24.6 mg/dL, the “Blood Glucose Levels at day 1” value ([4]; 200 mg/kg, orally) was 213.5 ± 21.5 mg/dL and the “Blood Glucose Levels at day 42” value ([4]; 200 mg/kg, orally) was 195.4 ± 23.4 mg/dL. The “Blood Glucose Levels at day 1” value ([4]; 200 mg/kg, transdermally) was 216.4 ± 21.9 mg/dL, the “Blood Glucose Levels at day 42” value ([4]; 200 mg/kg, transdermally) was 247.4 ± 27.8 mg/dL and the “Blood Glucose Levels at day 1” value ([4]; 300 mg/kg, orally) was 215.6 ± 22.4 mg/dL. For the same compound, the “Blood Glucose Levels at day 42” value ([4]; 300 mg/kg, orally) was 165.4 ± 22.1 mg/dL, the anti-diabetic effect ([4]; transdermal administration) was “did not show any anti-diabetic effect” and the body temperature ([5]; 20 mg/kg, orally, t = 0 min., in °C (unit assumed)) was 37.5 ± 0.2. It also gave a body temperature ([5]; 20 mg/kg, orally, t = 90 min., in °C (unit assumed)) of 37.7 ± 0.3, a body temperature ([5]; 20 mg/kg, orally, t = 180 min., in °C (unit assumed)) of 37.4 ± 0.3 and a body temperature ([5]; 20 mg/kg, orally, t = 270 min., in °C (unit assumed)) of 37.4 ± 0.4. For the same compound, the body temperature ([5]; 50 mg/kg, orally, t = 0 min., in °C (unit assumed)) was 37.5 ± 0.3, the body temperature ([5]; 50 mg/kg, orally, t = 90 min., in °C (unit assumed)) was 37.7 ± 0.3 and the body temperature ([5]; 50 mg/kg, orally, t = 180 min., in °C (unit assumed)) was 37.1 ± 0.3. The body temperature ([5]; 50 mg/kg, orally, t = 270 min., in °C (unit assumed)) was 37.0 ± 0.4, the body temperature ([5]; 100 mg/kg, orally, t = 0 min., in °C (unit assumed)) was 37.5 ± 0.2 and the body temperature ([5]; 100 mg/kg, orally, t = 90 min., in °C (unit assumed)) was 37.3 ± 0.4. The body temperature ([5]; 100 mg/kg, orally, t = 180 min., in °C (unit assumed)) was 36.7 ± 0.3, the body temperature ([5]; 100 mg/kg, orally, t = 270 min., in °C (unit assumed)) was 36.8 ± 0.4 and the body temperature ([5]; groups H/I, 50 mg/kg, transdermally, t = 0 min., in °C (unit assumed)) was 37.6 ± 0.3. The body temperature ([5]; groups H/I, 50 mg/kg, transdermally, t = 90 min., in °C (unit assumed)) was 37.9 ± 0.3, the body temperature ([5]; groups H/I, 50 mg/kg, transdermally, t = 180 min., in °C (unit assumed)) was 37.8 ± 0.4 and the body temperature ([5]; groups H/I, 50 mg/kg, transdermally, t = 270 min., in °C (unit assumed)) was 37.7 ± 0.5. It also gave a body temperature ([5]; groups J/K, 20 mg/kg, transdermally, t = 0 min., in °C (unit assumed)) of 37.6 ± 0.3, a body temperature ([5]; groups J/K, 20 mg/kg, transdermally, t = 90 min., in °C (unit assumed)) of 37.8 ± 0.4 and a body temperature ([5]; groups J/K, 20 mg/kg, transdermally, t = 180 min., in °C (unit assumed)) of 37.7 ± 0.4. It also gave a body temperature ([5]; groups J/K, 20 mg/kg, transdermally, t = 270 min., in °C (unit assumed)) of 38.0 ± 0.3, a body temperature ([5]; groups L/M, 20 mg/kg, transdermally, t = 0 min.) of 37.5 ± 0.3 and a body temperature ([5]; groups L/M, 20 mg/kg, transdermally, t = 90 min., in °C (unit assumed)) of 37.6 ± 0.5. The body temperature ([5]; groups L/M, 20 mg/kg, transdermally, t = 180 min., in °C (unit assumed)) was 37.8 ± 0.3, the body temperature ([5]; groups L/M, 20 mg/kg, transdermally, t = 270 min., in °C (unit assumed)) was 37.9 ± 0.3 and the antipyretic activity ([5]; transdermal administration) was “did not show any antipyretic activity”.
With CCN(CC)CCOC(=O)CCCc1ccc(N(CCCl)CCCl)cc1.Cl [HPC of chlorambucil, N,N-diethylaminoethyl 4-[bis(2-chloroethyl)amino]benzenebutyrate.HCl salt] the “HGC-27 cell growth inhibition rate” value ([6]; 0.5 μM) was 15.6%, the “HGC-27 cell growth inhibition rate” value ([6]; 2.0 μM) was 28.7% and the “HGC-27 cell growth inhibition rate” value ([6]; 5.0 μM) was 42.1%. The “HGC-27 cell growth inhibition rate” value ([6]; 25 μM) was 61.6%, the “HGC-27 cell growth inhibition rate” value ([6]; 50 μM) was 82.1% and the “HGC-27 cell growth inhibition rate” value ([6]; 75 μM) was 96.5%. For the same compound, the “HGC-27 cell growth inhibition rate” value ([6]; 100 μM) was 98.1%, the “HGC-27 cell growth inhibition rate” value ([6]; 200 μM) was 97.2% and the “HGC-27 cell growth inhibition rate” value ([6]; 500 μM) was 98.2%.
In the case of CN(C)CCCC(=O)OC1=C(C(=O)Nc2nccs2)N(C)S(=O)(=O)c2ccccc21.Cl [P-52, N-(2-thiazoyl)-4-N,N-dimethylaminobutyryloxy-2-methyl-2H,1,2-benzothiazine-3-carboxamide 1,1-dioxide.HCl], the “tumor Size at day 30” value [1, 7] is reported as 720 ± 280 mm^3 and the “Weight of mice at day 30” value ([1]; in vivo) is reported as 23 ± 3.
